Patent US20050048001A1, “Pharmaceutical formulations of salmeterol” (priority 1999, published 2005)

Assay: Solubility of forms of salmeterol in ethanol/HFA mixtures
Format: physicochemical
Settings: mixtures of ethanol/HFA134a and ethanol/HFA227; relative to racemic salmeterol xinafoate
Text: FIG. 6: Chart to show the solubility of various forms of salmeterol in a number of different solvents.

Row | SMILES | solubility
1 | O=C(O)c1ccc2ccccc2c1O.OCc1cc(C(O)CNCCCCCCOCCCCc2ccccc2)ccc1O (centres unmarked) [R-salmeterol xinafoate] | significantly more soluble
2 | OCc1cc(C(O)CNCCCCCCOCCCCc2ccccc2)ccc1O (stereo not drawn) [salmeterol base, 4-hydroxy-α^1-[[[6-(4-phenylbutoxy)hexyl]amino]methyl]-1,3-benzenedimethanol] | substantially more soluble
